Assay results reported in patent US9725490B2, “ERAP1-derived peptide and use thereof” (TOKUSHIMA UNIVERSITY, priority 2011, dated 2017).

Assays:
Format in all cases: cell-based, human
[1] = tested on: pS2, cyclin D1, c-Myc, SP-1, E2F1, PgR; test: Quantitative RT-PCR of ERα target genes, MCF-7
[2] = tested on: PHB2/REA phosphorylation; test: Phosphorylation of PHB2 bound to ERα, nuclear fraction; conditions: MCF-7, 5 μM peptide, 1 μM E2 24 hours
Method: FIG. 22 is a diagram illustrating that phosphorylation of PHB2 serine regulates the transcriptional activity of ERα. […] MCF-7 cells and HCC1395 cells were treated with 5 μM ERAP1-peptide. Then, immediately, the cells were stimulated with 1 μM E2 for 24 hours. Then, the nuclear fraction of each cell was immunoprecipitated with anti-ERα antibody. Furthermore, with respect to the obtained sample, immunoblotting analysis was performed using the antibodies shown in the figure and the phosphorylation antibody. […] COS-7 cells temporarily transfected with PHB2 (or PHB2 mutation vectors, S39A and S39G), ERα, ERE-luciferase vector, and each plasmid of pRL-TK as an internal standard were stimulated with 1 μM E2 for 48 hours.
MCF-7 cells and HCC1395 cells were treated with 5 μM ERAP1-peptide. Then, immediately the cells were stimulated with 1 μM E2 for 24 hours. Then, the nuclear fraction was isolated from the cells of each treatment. The nuclear fraction was precleaned at 4° C. for 3 hours using Normal IgG and rec-Protein G Sepharose 4B (Zymed, San Francisco, Calif., USA), and centrifuged, and then the supernatant was incubated in the presence of an anti-ERα antibody at 4° C. for 6 hours. Then, the supernatant was added with rec-Protein G Sepharose 4B and incubated at 4° C. for 1 hour to precipitate a antigen-antibody complex. […]

[3] = tested on: ERAP1 expression; test: ERAP1 expression, quantitative RT-PCR and Western, MCF-7; conditions: 10 μM peptide, time course
[4] = tested on: ERα; test: ERα down-regulation and polyubiquitination in KPL-3C cells; conditions: in the presence of MG132
Method: FIG. 5 is a diagram illustrating the results of immunoblotting analysis by which the effects of the ERAP1-peptide in the down-regulation by polyubiquitination of ERα and proteasome decomposition were evaluated. The upper panel and the lower panel show the results obtained by the procedures described below. Namely, KPL-3C cells were treated with the ERAP1-peptide and/or 10 nM E2 for 1 hour. Then, the protein level and the mRNA level of ERα were examined by Western blotting and semi-quantitative RT-PCR. The results thereof are shown in the upper panel. β-actin is a loading control. Then KPL-3C cells were treated with the ERAP1-peptide and/or E2 in the presence of 1 μM MG-132 for 1 hour. Then, the cell lysate was immunoprecipitated with anti-ERα antibody. The results thereof are shown in the lower panel.

[5] = tested on: ERα binding to Her2, EGFR, IGF1-Rβ, PI3K; AKt and MAPK routes; test: Non-genomic activation route, immunoblotting, BT474
Method: (§1) FIG. 10-2 is a diagram illustrating that the ERAP1-peptide regulates E2-induced non-genomic activation route via IGF-1Rβ and Shc. […] BT-474 cells were treated with the ERAP1-peptide and/or E2 for 24 hours. Then, the cytoplasm fraction was immunoprecipitated with anti-ERα antibody.
FIG. 10-3 is a diagram illustrating that the ERAP1-peptide regulates E2-induced non-genomic activation route via IGF-1Rβ and Shc. […] BT-474 cells were treated with the ERAP1-peptide. Then, the phosphorylation levels of Akt and MAPK were evaluated by Western blotting. […] MCF-7 cells were treated with the ERAP1-peptide or the ERAP1-scramble peptide. The relative phosphorylation levels were quantified by densitometry analysis, and the ratio to the value at 0 hour in the untreated cells was calculated.

[6] = tested on: ZR-75-1, HCC1500, BT474, YMB-1, KPL-1, HBC4; test: E2-dependent cell proliferation assay, other ERα/ERAP1-positive breast cancer cell lines; conditions: 10 μM, 10 nM E2 24 hours
Method: FIG. 7-2 is a diagram illustrating that ERAP1-peptide treatment suppresses ERα-dependent cell proliferation of breast cancer cell lines. […] Various ERα/ERAP1-positive breast cancer cell lines shown in the figure were treated with 10 μM of the ERAP1-peptide or the scramble peptide or 10 nM tamoxifen. Then, immediately, the cells were stimulated with 10 nM E2 for 24 hours.
Using Cell-Counting Kit-8 (CCK-8, Dojindo, Kumamoto, Japan), the cell proliferation assay was performed. The cells were harvested, and plated in 2×10^4 cells/well on a 48-well plate, and maintained at 37° C. in a humidified incubator. At the indicated time points, the cells were added with a CCK-8 solution diluted to 1:10, and incubated for 1 hour. Then, the absorbance at 450 nm was measured and the number of living cells in each well was calculated.

[7] = tested on: ERα interaction with IGF-1Rβ, Shc, PI3K; Akt and MAPK phosphorylation; test: Non-genomic activation route, immunoprecipitation/immunoblotting, MCF-7
Method: MCF-7 cells were treated with the ERAP1-peptide. Then, immediately, the cells were stimulated with 10 nM E2 for 24 hours. Then, the cytoplasm fraction was immunoprecipitated with anti-ERα antibody. […] MCF-7 cells were treated with the ERAP1-peptide. Then, immediately, the cells were stimulated with 10 nM E2 for 24 hours. Then the cytoplasm fraction was immunoprecipitated with anti-ERα antibody or anti-PHB2 antibody.
as §1
As described in the item of “Western blotting analysis”, the cells were lysed with a 0.1% NP-40 lysis buffer. The cell lysate was precleaned using normal IgG and rec-Protein G Sepharose 4B (Zymed, San Francisco, Calif., USA) at 4° C. for 3 hours. After centrifuge separation, the supernatant was incubated in the presence of an anti-ERAP1 antibody, an anti-PHB2 antibody and an anti-ERα antibody at 4° C. for 6 hours. Then, the supernatant was incubated in the presence of rec-Protein G Sepharose 4B at 4° C. for 1 hour, to precipitate an antigen-antibody complex. The immunoprecipitated protein complex was washed with a lysis buffer three times, and separated by SDS-PAGE. Then, Western blotting analysis was performed by the method described previously (Kim J W, et al. Cancer Sci. 2009; 100: 1468-78.).

In the case of `CSCC[C@H](NC(=O)[C@H](CCC(N)=O)NC(=O)[C@H](CCCNC(=N)N)NC(=O)[C@H](CCCNC(=N)N)NC(=O)[C@H](CCCNC(=N)N)NC(=O)[C@H](CCCNC(=N)N)NC(=O)[C@H](CCCNC(=N)N)NC(=O)[C@H](CCCNC(=N)N)NC(=O)[C@H](CCCNC(=N)N)NC(=O)[C@H](CCCNC(=N)N)NC(=O)[C@H](CCCNC(=N)N)NC(=O)[C@H](CCCNC(=N)N)NC(=O)[C@@H](N)CCCNC(=N)N)C(=O)N[C@@H](CC(C)C)C(=O)N[C@@H](CO)C(=O)N[C@@H](CC(=O)O)C(=O)N[C@@H](CC(C)C)C(=O)N[C@H](C(=O)N[C@@H](CC(C)C)C(=O)N[C@@H](CCC(N)=O)C(=O)N[C@@H](CC(C)C)C(=O)N[C@@H](CCCNC(=N)N)C(=O)N[C@@H](CCC(N)=O)C(=O)N[C@@H](CCCNC(=N)N)C(=O)O)[C@@H](C)O` [ERAP1-peptide], the “expression of ERα target genes” value ([1]; after 24 hours) is reported as “expression of any of the genes was remarkably suppressed”, the “time at which significant expression suppression effect was first recognized” value ([1]; after addition of the peptide) is reported as 6 h and the “phosphorylation of PHB2/REA bound to ERα in the nucleus” value [2] is reported as “phosphorylations of the tyrosine and serine residues in the binding-recognized PHB2/REA were recognized”. For the same compound, the “E2-dependent expression of ERAP1” value [3] was “temporally suppressed”, the “protein decrease and polyubiquitination of ERα” value [4] was “suppression for protein decrease of ERα was similarly recognized with inhibition of polyubiquitination” and the “bindings of ERα to Her2, EGFR, IGF1-Rβ and PI3K” value [5] was “all of the bindings of ERα to Her2, EGFR, IGF1-Rβ and PI3K were inhibited”. The E2-dependent cell proliferation [6] was “remarkable E2-dependent proliferation suppression effect in all of the cells”, the “binding of ERα and PI3K” value ([7]; cytoplasm fraction, 24 hours) was “inhibit the binding of ERα and PI3K” and the “binding of ERα and Shc and of ERα and IGF-1Rβ” value ([7]; cytoplasm fraction, 24 hours) was “inhibited the binding of ERα and Shc and the binding of ERα and IGF-1Rβ”. The “phosphorylation of Ser473 of Akt and phosphorylation of MAPK” value ([7]; time course to 24 hours) was “inhibited respectively within 3 hours after addition of the ERAP1-peptide, and the suppression was maintained even after 24 hours”.
